Experimental data taken from patent publication US20010006969A1, “PYRIMIDINE NUCLEUS-CONTAINING COMPOUND AND A MEDICAMENT CONTAINING THE SAME FOR A BLOOD OXYGEN PARTIAL PRESSURE AMELIORATION, AND A METHOD FOR PREPARING THE SAME” (priority 1997, published 2001).
Counter-ions that a name gives are not always drawn.

Tested on: hypoxemic model rats
Test: Determination of oxygen partial pressure increasing action (arterial blood PaO2 gain in hypoxemic model rats)
Assay type: in vivo, Sprague-Dawley male rats
Settings: quinazoline derivatives; urethane-anesthetized rats, hypoxic state (PaO2≦75 mmHg) by olive oil-charcoal powder suspension; i.v. continuously 0.1 mg/kg/min; PaO2 measured 10 minutes after completion of administration; gain before vs after
Description: Determination of oxygen partial pressure increasing action
Actions of the quinazoline derivatives of the present invention to increase oxygen partial pressure in the arterial blood were determined according to the following method:
Sprague-Dawley male rats having body weights of about 250 g were anesthetized (i.p.) with urethane and cannulated to the respiratory tracts, femoral arteries and femoral veins. An olive oil-charcoal powder suspension (10 mg/ml) was introduced in an amount of 0.8 ml/kg through the respiratory tract cannulae into the lungs to cause the rats to hypoxic state (PaO2≦75 mmHg). The quinazoline derivatives listed in Table 1 were intravenously administered to these hypoxemic model rats continuously at a rate of 0.1 mg/kg/min, and arterial blood oxygen partial pressure value (PaO2) of each rat was measured at the time point of 10 minutes after completion of administration using a blood gas analyzer (Ciba Corning 800 series). Gains (APaO2) were determined based on results of PaO2 measurement made before and after administration of the test compounds.
Actions of the thienopyrimidine derivatives of the present invention to increase oxygen partial pressure in the arterial blood were determined according to the following method:
Sprague-Dawley male rats having body weights of about 250 g were anesthetized (i.p.) with urethane and cannulated to the respiratory tracts, femoral arteries and femoral veins. An olive oil-charcoal powder suspension (10 mg/ml) was introduced in an amount of 0.8 ml/kg through the respiratory tract cannulae into the lungs to cause the rats to be under hypoxic state (PaO2 Δ 75 mmHg). The thienopyrimidine derivatives listed in Table 2 were intravenously administered to these hypoxemic model rats continuously at a rate of 0.1 mg/kg/min, and arterial blood oxygen partial pressure value (PaO2) of each rat was measured at the time point of 10 minutes after completion of administration using a blood gas analyzer (Ciba Corning 800 series). Gains (ΔPaO2) were determined based on results of PaO2 measurement made before and after administration of the test compounds.

In order of falling ΔPaO2:
1. C=CCNc1nc(NCCCCC)c2cc([N+](=O)[O-])ccc2n1 [Example 25, 2-Allylamino-6-nitro-4-pentylaminoquinazoline hydrochloride]  46 mmHg
2. C=CCNc1nc(NCCCCCCC)c2cc([N+](=O)[O-])ccc2n1 [Example 26, 2-Allylamino-4-heptylamino-6-nitroquinazoline hydrochloride]  46 mmHg
3. C=CCNc1nc(NCc2ccco2)nc2ccc([N+](=O)[O-])cc12 [Example 33, 4-Allylamino-2-furfurylamino-6-nitroquinazoline hydrochloride]  42 mmHg
4. C=CCNc1nc(NCCCC)nc2ccc([N+](=O)[O-])cc12 [Example 31, 4-Allylamino-2-butylamino-6-nitroquinazoline hydrochloride]  36 mmHg
5. C=CCNc1nc(NC2CCCC2)c2cc([N+](=O)[O-])ccc2n1 [Example 27, 2-Allylamino-4-cyclopentylamino-6-nitroquinazoline hydrochloride]  35 mmHg
6. C=CCNc1nc(NCCCCC)nc2ccc([N+](=O)[O-])cc12 [Example 35, 4-Allylamino-6-nitro-2-pentylaminoquinazoline hydrochloride]  34 mmHg
7. C=CCNc1nc(NC2CCCC2)nc2ccc([N+](=O)[O-])cc12 [Example 34, 4-Allylamino-2-cyclopentylamino-6-nitroquinazoline hydrochloride]  32 mmHg
8. C=CCNc1nc(NC(C)CC)c2cc([N+](=O)[O-])ccc2n1 (stereo not drawn) [Example 49, 2-Allyiamino-4-(l-methylpropylamino)-6-nitroquinazoline hydrochloride]  32 mmHg
9. C=CCNc1nc(NC(C)C)c2cc([N+](=O)[O-])ccc2n1 [Example 28, 2-Allylamino-4-isopropylamino-6-nitroquinazoline hydrochloride]  26 mmHg

Same assay, conditions: thienopyrimidine derivatives; urethane-anesthetized rats, hypoxic state (PaO2 Δ 75 mmHg) by olive oil-charcoal powder suspension; i.v. continuously 0.1 mg/kg/min; PaO2 measured 10 minutes after completion of administration; gain before vs after

In order of falling ΔPaO2:
1. C=CCNc1nc(NC2CCCCC2)c2scc(C)c2n1 [Example 70, 2-Allylamino-4-cyclohexylamino-7-methylthieno[3,2-d] pyrimidine hydrochloride]  42 mmHg
2. C=CCNc1nc(N(CC=C)CC=C)c2scc(C)c2n1 [Example 71, 2-Allylamino-4-diallylamino-7-methylthieno[3,2-d] pyrimidine hydrochloride]  26 mmHg

Tested on: not given
Test: not given
Settings: not given

First: C=CCNc1nc(NCCC(=O)N2CCCCC2)nc2ccc([N+](=O)[O-])cc12 [Example 53, 4-Allylamino-6-nitro-2-[2-(piperidinocarbonyl)ethylamino] quinazoline]
Second: C=CCNc1nc(NCC(F)(F)F)nc2ccc([N+](=O)[O-])cc12 [Example 56, 4-Allylamino-2-(2,2,2-trifluoroethylamino)-6-nitroquinazoline]
The melting point of the first is lower: 178 to 179 °C for the first, 221 to 222 °C for the second.

First: C=CCNc1nc(NCc2ccccn2)nc2ccc([N+](=O)[O-])cc12 [Example 54, 4-Allylamino-6-nitro-2-(2-pyridylmethylamino)quinazoline]
Second: C=CCNc1nc(NCC=C(C)C)nc2ccc([N+](=O)[O-])cc12 [Example 58, 4-Allylamino-2-(3-methyl-2-butenylamino)-6-nitroquinazoline]
The melting point of the first is higher: 202 to 203 °C for the first, 194 to 195 °C for the second.

First: C=CCNc1nc(NCC(F)(F)F)c2cc([N+](=O)[O-])ccc2n1 [Example 55, 2-Allylamino-4-(2,2,2-trifluoroethylamino)-6-nitroquinazoline]
Second: C=CCNc1nc(NCC=C(C)C)c2cc([N+](=O)[O-])ccc2n1 [Example 59, 2-Allylamino-4-(3-methyl-2-butenylamino)-6-nitroquinazoline]
The melting point of the first is higher: 215 to 216 °C for the first, 209 to 210 °C for the second.

First: CC(C)=CCNc1nc(NCC=C(C)C)c2cc([N+](=O)[O-])ccc2n1 [Example 61, 2,4-Bis(3-methyl-2-butenylamino)-6-nitroquinazoline]
Second: C=CCNc1nc(NC(C)C=C)c2cc([N+](=O)[O-])ccc2n1 (centres unmarked) [Example 63, 2-Allylamino-4-(1-methyl-2-propenylamino)-6-nitroquinazoline]
The melting point of the first is lower: 168 to 172 °C for the first, 172 to 173 °C for the second.

Compared with `C=CC(C)Nc1nc(NCCCC)nc2ccc([N+](=O)[O-])cc12` (centres unmarked) [Example 62, 2-Butylamino-4-(1-methyl-2-propenylamino)-6-nitroquinazoline], `C=CC(C)Nc1nc(NC(C)C=C)c2cc([N+](=O)[O-])ccc2n1` (centres unmarked) [Example 64, 2,4-Bis(1-methyl-2-propenylamino)-6-nitroquinazoline] is lower in melting point: 156 to 158 °C for the first, 122 to 125 °C for the second.

First: C=CCNc1nc(NC(C)C=C)nc2ccc([N+](=O)[O-])cc12 (centres unmarked) [Example 65, 4-Allylamino-2-(1-methyl-2-propenylamino)-6-nitroquinazoline]
Second: C=CCNc1nc(NC(C)C)c2scc(C)c2n1 [Example 77, 2-Allylamino-4-isopropylamino-7-methylthieno[3,2-d] pyrimidine]
The melting point of the first is higher: 123 to 124 °C for the first, 106 to 107 °C for the second.

Compared with `C=CCNc1nc(NCC(C)(C)C)c2scc(C)c2n1` [Example 67, 2-Allylamino-7-methyl-4-neopentylaminothieno[3,2-d] pyrimidine], `C=CCNc1nc(NNC(C)(C)C)c2scc(C)c2n1` [Example 89, 2-Allylamino-4-(2-t-butylhydrazino)-7-methylthieno[3,2-d] pyrimidine] is higher in melting point: 90 to 92 °C for the first, 105 to 107 °C for the second.

Compared with `C=CCNc1nc(NCc2ccccc2)c2scc(C)c2n1` [Example 69, 2-Allylamino-4-benzylamino-7-methylthieno[3,2-d] pyrimidine], `C=CCNc1nc(NC/C=C/c2ccccc2)c2scc(C)c2n1` [Example 102, 2-Allylamino-4-(trans-cinnamylamino)-7-methylthieno[3,2-d] pyrimidine] is lower in melting point: 97 to 98 °C for the first, 82 to 84 °C for the second.

First: C=CCNc1nc(NC(CO)CO)c2scc(C)c2n1 [Example 73, 2-Allylamino-4-(1,3-dihydroxypropan-2-yl)amino-7-methylthieno[3,2-d]pyrimidine]
Second: C=CCNc1nc(NCC(=C)C)c2scc(C)c2n1 [Example 100, 2-Allylamino-7-methyl-4-(2-methyl-2-propenylamino)thieno[3,2-d]pyrimidine]
The melting point of the first is higher: 163 to 164 °C for the first, 83 °C for the second.

Compared with `C=CCNc1nc(NCCOC)nc2c(C)csc12` [Example 85, 4-Allylamino-2-(2-methoxyethylamino)-7-methylthieno[3,2-d] pyrimidine], `C=CCNc1nc(NCCC)nc2c(C)csc12` [Example 86, 4-Allylamino-7-methyl-2-propylaminothieno[3,2-d] pyrimidine] is lower in melting point: 87 to 88 °C for the first, 74 to 75 °C for the second.

Compared with `C=CCNc1nc(NC(=O)C(C)(C)C)c2scc(C)c2n1` [Example 90, 2-Allylamino-7-methyl-4-pivaloylaminothieno[3,2-d] pyrimidine], `C=CCNc1nc(NCC=C(C)C)c2scc(C)c2n1` [Example 101, 2-Allylamino-7-methyl-4-(3-methyl-2-butenylamino)thieno[3,2-d]pyrimidine] is higher in melting point: 88 to 89 °C for the first, 114 to 115 °C for the second.

First: C=CCNc1nc(NC(=O)NC2CCCCC2)c2scc(C)c2n1 [Example 93, 2-Allylamino-4-(cyclohexylcarbamoyl)amino-7-methylthieno[3,2-d]pyrimidine]
Second: C=CCNc1nc(NC(=O)N2CCCC2)c2scc(C)c2n1 [Example 98, 2-Allylamino-7-methyl-4-(1-pyrrolidinylcarbonyl)aminothieno[3,2-d]pyrimidine]
The melting point of the first is higher: 152 to 153 °C for the first, 98 to 101 °C for the second.

First: C=CCNC(=O)Nc1nc(NCC=C)nc2c(C)csc12 [Example 96, 2-Allylamino-4-(allylcarbamoyl)amino-7-methylthieno[3,2-d] pyrimidine]
Second: C=CCNC(=O)CCNc1nc(NCC=C)nc2c(C)csc12 [Example 112, 2-Allylamino-4-[2-(allylcarbamoyl)ethylamino]-7-methylthieno[3,2-d]pyrimidine]
The melting point of the first is higher: 164 to 165 °C for the first, 95 to 96 °C for the second.

Compared with `C=CCNc1nc(NC(=O)NCCCC)c2scc(C)c2n1` [Example 97, 2-Allylamino-4-(butylcarbamoyl)amino-7-methylthieno[3,2-d] pyrimidine], `C#CCNc1nc(NCC=C)nc2c(C)csc12` [Example 99, 2-Allylamino-7-methyl-4-(2-propynylamino)thieno[3,2-d] pyrimidine] is lower in melting point: 141 °C for the first, 95 to 96 °C for the second.

First: C=CCNc1nc(NCC=C)c2scc(-c3ccccc3)c2n1 [Example 110, 2,4-Diallylamino-7-phenylthieno[3,2-d]pyrimidine]
Second: C=CCNc1nc(NCC=C)c2scc(Br)c2n1 [Example 111, 2,4-Diallylamino-7-bromothieno[3,2-d]pyrimidine]
The melting point of the first is higher: 98 to 100 °C for the first, 87 to 88 °C for the second.
